Consider 31 compounds from ChEMBL document CHEMBL1124311, “Synthesis and antiallergy activity of 4-(diarylhydroxymethyl)-1-[3-(aryloxy)propyl]piperidines and structurally related compounds” (J Med Chem, 1989).

Holding throughout (type): functional, organism-based
The test system of assay [1] is Rattus norvegicus. The assay can be described thus: Oral antiallergy activity in the passive foot anaphylaxis (PFA) model of rat, at a dose of 3.16 (mg/kg); Activity equal to positive control group.
For assay [2], the system named is Rattus norvegicus. In words: Oral antiallergy activity in the passive foot anaphylaxis (PFA) model of rat, at a dose of 10 (mg/kg); Activity equal to positive control group.
Assay [3] deals with Rattus norvegicus. In words: Oral antiallergy activity in the passive foot anaphylaxis (PFA) model of rat, at a dose of 10 (mg/kg); Activity greater than positive control group.
Assay [4] concerns Rattus norvegicus. In words: Oral antiallergy activity in the passive foot anaphylaxis (PFA) model of rat, at a dose of 3.16 (mg/kg); not significantly different from negative control group.
In assay [5] the test system is Rattus norvegicus. The assay can be described thus: Oral antiallergy activity in the passive foot anaphylaxis (PFA) model of rat, at a dose of 1.0 (mg/kg); Activity between positive and negative control groups.
Assay [6] concerns Rattus norvegicus. In words: Oral antiallergy activity in the passive foot anaphylaxis (PFA) model of rat, at a dose of 3.16 (mg/kg); Activity between positive and negative control groups.
In assay [7] the test system is Rattus norvegicus. In words: Oral antiallergy activity in the passive foot anaphylaxis (PFA) model of rat, at a dose of 1.0 (mg/kg); not significantly different from negative control group.
Assay [8] relates to Rattus norvegicus. The assay can be described thus: Oral antiallergy activity in the passive foot anaphylaxis (PFA) model of rat, at a dose of 10 (mg/kg); Activity between positive and negative control groups.

Turning to `OC(c1ccc(F)cc1)(c1ccc(F)cc1)C1CCN(CCCOc2ccccc2)CC1`, the PFA entry in the assay with Rattus norvegicus [1] was “Activity equal to positive control group”.
For the compound `COc1cc(C(C)=O)ccc1OCCCN1CCC(C(=O)c2ccccc2)CC1`, in the assay with Rattus norvegicus [2], the PFA entry was “Activity equal to positive control group”.
The same measure, in the same setting: then `COc1cc(C(C)=O)ccc1OCCCN1CCN(c2ccccc2)CC1`, with “Activity equal to positive control group”.
For `CC(=O)Cc1ccc(OCCCN2CCC(C(O)(c3ccc(F)cc3)c3ccc(F)cc3)CC2)cc1`, the PFA entry with Rattus norvegicus [3] and in the assay on Rattus norvegicus [4] was “Activity greater than positive control group” throughout.
On to `OC(c1ccccc1)(c1ccccc1)C1CCN(CCCOc2ccccc2)CC1`, for which the PFA entry in the assay on Rattus norvegicus [2] is listed as “Activity equal to positive control group”.
For the compound `CS(=O)(=O)c1ccc(OCCCN2CCC(C(O)(c3ccc(F)cc3)c3ccc(F)cc3)CC2)cc1`, the PFA entry in the assay on Rattus norvegicus [2] and in the assay on Rattus norvegicus [4] was “Activity equal to positive control group” each time.
Regarding `CC(C)Oc1ccccc1OCCCN1CCC(C(O)(c2ccc(F)cc2)c2ccc(F)cc2)CC1`, the PFA entry is “Activity between positive and negative control groups” with Rattus norvegicus [5]; “Activity between positive and negative control groups” in the assay on Rattus norvegicus [6].
For `CCOC(=O)Nc1ccc(OCCCN2CCC(C(O)(c3ccc(F)cc3)c3ccc(F)cc3)CC2)cc1`, the PFA entry with Rattus norvegicus [7], in the assay on Rattus norvegicus [3] and in the assay on Rattus norvegicus [1] was “Activity equal to positive control group” each time.
Consider `COc1cc(C(C)=O)ccc1OCCCN1CCC(C(O)(c2ccccc2)c2ccc(F)cc2)CC1` (configuration not stated), for which the PFA entry with Rattus norvegicus [1] is recorded as “Activity equal to positive control group”.
Take `CCc1ccc(OCCCN2CCC(C(O)(c3ccc(F)cc3)c3ccc(F)cc3)CC2)cc1`: the PFA entry was “Activity between positive and negative control groups” in the assay on Rattus norvegicus [7]; “Activity between positive and negative control groups” with Rattus norvegicus [2]; “Activity between positive and negative control groups” with Rattus norvegicus [6].
For `COc1cc(C(C)=O)ccc1OCCN1CCC(C(O)(c2ccc(F)cc2)c2ccc(F)cc2)CC1`, the PFA entry with Rattus norvegicus [2] is recorded as “Activity equal to positive control group”.
`CC(=O)c1ccc(OCCCN2CCC(C(O)(c3ccc(F)cc3)c3ccc(F)cc3)CC2)cc1`: the PFA entry in the assay on Rattus norvegicus [7], in the assay on Rattus norvegicus [3] and in the assay with Rattus norvegicus [1] was “Activity equal to positive control group” each time.
Consider `CSc1ccc(OCCCN2CCC(C(O)(c3ccc(F)cc3)c3ccc(F)cc3)CC2)cc1`, for which the PFA result with Rattus norvegicus [2] and in the assay with Rattus norvegicus [4] was “Activity equal to positive control group” each time.
Turning to `COc1cc(C(C)=O)ccc1OCCCN1CCN(C(c2ccccc2)c2ccccc2)CC1`, in the assay with Rattus norvegicus [2], the PFA result is recorded as “Activity equal to positive control group”.
Regarding `COc1ccc(OCCCN2CCC(C(O)(c3ccc(F)cc3)c3ccc(F)cc3)CC2)cc1`, the PFA entry with Rattus norvegicus [2] and in the assay on Rattus norvegicus [4] was “Activity equal to positive control group” in each case.
Turning to `Nc1ccc(OCCCN2CCC(C(O)(c3ccc(F)cc3)c3ccc(F)cc3)CC2)cc1`, the PFA entry with Rattus norvegicus [7] is “Activity between positive and negative control groups”; with Rattus norvegicus [3] it was “Activity between positive and negative control groups”; with Rattus norvegicus [6] it was “Activity between positive and negative control groups”.
For the compound `CCOC(=O)c1ccccc1OCCCN1CCC(C(O)(c2ccc(F)cc2)c2ccc(F)cc2)CC1`, the PFA entry in the assay with Rattus norvegicus [7] was “Activity between positive and negative control groups”; with Rattus norvegicus [8], “Activity between positive and negative control groups”; in the assay on Rattus norvegicus [6] it was “Activity between positive and negative control groups”.
With `CC(C)C(=O)c1ccc(OCCCN2CCC(C(O)(c3ccc(F)cc3)c3ccc(F)cc3)CC2)cc1`, the PFA entry with Rattus norvegicus [3] and with Rattus norvegicus [4] was “Activity greater than positive control group” in each case.
Consider `COc1cc(C(C)=O)ccc1OCCCCN1CCC(C(O)(c2ccc(F)cc2)c2ccc(F)cc2)CC1`, for which the PFA entry in the assay on Rattus norvegicus [1] is “Activity equal to positive control group”.
Take `COc1cc(C(C)=O)ccc1OCCCN1CCC(C(c2ccccc2)c2ccccc2)CC1`: the PFA entry in the assay with Rattus norvegicus [2] was “Activity equal to positive control group”.
Consider `Cc1cccc(OCCCN2CCC(C(O)(c3ccc(F)cc3)c3ccc(F)cc3)CC2)c1`, for which the PFA result in the assay on Rattus norvegicus [7] is “Activity between positive and negative control groups”; with Rattus norvegicus [8] it was “Activity between positive and negative control groups”; in the assay on Rattus norvegicus [6], “Activity between positive and negative control groups”.
Regarding `COc1cc(C(C)=O)ccc1OCCCN1CCC(=C(c2ccccc2)c2ccccc2)CC1`, in the assay with Rattus norvegicus [1], the PFA result is given as “Activity equal to positive control group”.
For the compound `Oc1ccccc1OCCCN1CCC(C(O)(c2ccc(F)cc2)c2ccc(F)cc2)CC1`, the PFA result in the assay with Rattus norvegicus [2] and in the assay with Rattus norvegicus [4] was “Activity equal to positive control group” each time.
As to `CN(C)C(=O)c1ccc(OCCCN2CCC(C(O)(c3ccc(F)cc3)c3ccc(F)cc3)CC2)cc1`, the PFA entry in the assay with Rattus norvegicus [7] was “Activity between positive and negative control groups”; in the assay with Rattus norvegicus [3], “Activity between positive and negative control groups”; in the assay on Rattus norvegicus [6] it was “Activity between positive and negative control groups”.
With `CNC(=O)Nc1ccc(OCCCN2CCC(C(O)(c3ccc(F)cc3)c3ccc(F)cc3)CC2)cc1`, the PFA result in the assay with Rattus norvegicus [2] and in the assay with Rattus norvegicus [4] was “Activity equal to positive control group” each time.
With `O=C(O)Cc1ccc(OCCCN2CCC(C(O)(c3ccc(F)cc3)c3ccc(F)cc3)CC2)cc1`, the PFA entry with Rattus norvegicus [7] is “Activity between positive and negative control groups”; with Rattus norvegicus [2] it was “Activity between positive and negative control groups”; with Rattus norvegicus [6] it was “Activity between positive and negative control groups”.
Regarding `CCNCCc1ccc(CN(CC)c2cc(OC)ccc2[C@@H]2CCc3cc(O)ccc3C2)cc1`, the PFA result was “Activity between positive and negative control groups” in the assay with Rattus norvegicus [7]; “Activity between positive and negative control groups” in the assay with Rattus norvegicus [6].
For `CCC(=O)c1ccc(OCCCN2CCC(C(O)(c3ccc(F)cc3)c3ccc(F)cc3)CC2)cc1`, the PFA entry with Rattus norvegicus [7], with Rattus norvegicus [3] and in the assay with Rattus norvegicus [1] was “Activity equal to positive control group” throughout.
As for `COc1ccccc1OCCCN1CCC(C(O)(c2ccc(F)cc2)c2ccc(F)cc2)CC1`, the PFA result is “Activity between positive and negative control groups” with Rattus norvegicus [5]; “Activity between positive and negative control groups” in the assay on Rattus norvegicus [6].
For `CC(C)(C)C(=O)c1ccc(OCCCN2CCC(C(O)(c3ccc(F)cc3)c3ccc(F)cc3)CC2)cc1`, the PFA result in the assay on Rattus norvegicus [2] and in the assay with Rattus norvegicus [4] was “Activity equal to positive control group” throughout.
Take `CC(=O)Nc1ccc(OCCCN2CCC(C(O)(c3ccc(F)cc3)c3ccc(F)cc3)CC2)cc1`: the PFA entry in the assay with Rattus norvegicus [7], with Rattus norvegicus [3] and in the assay with Rattus norvegicus [1] was “Activity equal to positive control group” each time.
